Experiment: Hygroscopicity of oleyl phosphocholine (water absorption)
Format: physicochemical
Details: exposed to 90% RH at 25° C.
Procedure: The development of solid dosage formulations of oleyl phosphocholine, and specifically the development of tablets, is complicated by the low melting point (56.3° C.), high hygroscopicity (absorbing 41.67 weight percent of water when exposed to 90% RH at 25° C.) and irregular particle size and shape of oleyl phosphocholine. These characteristics make it hard to obtain homogeneous, dry powders for tableting.

- hygroscopicity: water absorbed: 41.67 weight percent
SMILES: CCCCCCCC/C=C\CCCCCCCCOP(=O)([O-])OCC[N+](C)(C)C [oleyl phosphocholine]
